How the values were obtained:
[1] = test system: anti-peptide IgG in plasma; assay: Test Example 4: peptide-specific IgG titer pre and post vaccination, bead-based multiplexed Luminex assay; assay type: in vivo, human; conditions: for positive rate of patients showing ≥10 FIU, pre-vaccination peptide-specific IgG: 2,588 patients; for Pre-vaccination IgG Negative (number of patients) / Pre-vaccination IgG Positive (number of patients): cut off 10 FIU; for Post vaccination IgG: number of (positive) patients among vaccinated: positive IgG response; for Pre-vaccination IgG Negative patients: number of 2,588 patients below 10 FIU; for Pre-vaccination IgG Positive patients: number of 2,588 patients with ≥10 FIU; for Post vaccination IgG: (positive) patients: number of vaccinated patients with positive IgG response; for Correlation between immune responses and OS: Negative (mOS): patients with negative post-vaccination IgG response to the peptide; for Correlation between immune responses and OS: Positive (mOS): patients with positive post-vaccination IgG response to the peptide
Description: As described previously, IgG titer specific to the antigen peptides in plasma was measured by bead-based multiplexed Luminex assay (Luminex, Austin, Tex.) before and after vaccination, i.e., at the end of each cycle or at the end of the clinical trial (Non-Patent Literature 4). In brief, 30 mL of peripheral blood was obtained before and after vaccination. Plasma was incubated with 100 μL of peptide-coupled color-coded beads for 2 hours at 25° C. on a plate shaker. After the incubation, the resultant mixture was washed with a vacuum manifold apparatus and incubated with 100 μL of biotinylated goat anti-human IgG (gamma chain-specific; Vector Laboratories, Burlingame, Calif.) for 1 hour at 25° C. on a plate shaker. The plate was then washed, followed by addition of 100 μL of streptavidin-PE (Life Technologies) to each well, and incubation for 30 minutes at 25° C. on a plate shaker. The resultant beads were washed 4 times, followed by addition of 100 μL of Tween-PBS to each well, and detection of fluorescence intensity units (FIU) on the beads using the Luminex system. The cutoff values of anti-peptide IgG were set to 10 FIU in 100-fold diluted samples.
Pre-vaccination peptide-specific IgG titers to 31 peptides were measured using a Luminex system. As a detectable IgG level, 10 FIU was employed as the cut off level, as reported previously (Noguchi M, et al., Cancer Immunol Immunother. 2013 May; 62(5): 919-29; Sasada T, et al., Current Medicinal Chemistry. 21: 2332-2345, 2014; Kibe S, et al., Cancer Immunology Research 2014; 2(12): 1154-62).
Post-vaccination lgG titers were measured at the ends of the first cycle and the second cycle.

cancer patients = assay: Test Example 4: correlation between vaccination with individual peptides (or peptide sets) and OS, Cox proportional hazards regression; assay type: in vivo, human; conditions: for HR: Cox proportional hazards regression, OS; for Correlation between immune responses and OS: Negative (mOS) / Correlation between immune responses and OS: Positive (mOS): Table 20, <64% neutrophil and ≥26% lymphocyte; for Correlation between immune responses and OS: Negative (mOS): vaccinated patients with negative IgG response; for Correlation between immune responses and OS: Positive (mOS): vaccinated patients with positive IgG response
Description: The Student's t-test and the chi-square test were used to compare quantitative and categorical variables, respectively. OS was calculated as the time in months from the date of clinical trial enrollment to death or to the date of last contact. Time-to-event endpoints were analyzed using the Kaplan-Meier method, and between-group comparison for OS was conducted using the log-rank test. Clinical efficacy of the individual peptides for OS was evaluated by univariate and multivariate analyses with the Cox proportional hazards regression model, and HR and 95% CI were calculated. All reported p-values were two-sided, and p-values less than 0.05 were considered significant. JMP version 12 or SAS version 9.4 software (SAS Institute Inc., Cary, N.C.) was used to perform all analyses.
Correlation levels of the 31 peptides for OS were evaluated by the Cox proportional hazards regression model.
Similarly, in the 2,085 advanced cancer patients (stage IV+recurrence) and the 503 non-advanced cancer patients (I-III stages) correlation levels of the 31 peptides for OS were evaluated by the Cox proportional hazards regression model. […]

[2] = Table 20, patients showing both <64% neutrophil and ≥26% lymphocyte
[3] = patients showing detectable levels
[4] = patients showing positive responses
[5] = Table 18, all 2,588 cases, vaccinated vs non-vaccinated
[6] = Table 18, all 2,588 cases, median OS of patients under PPV containing the peptide
[7] = Table 18, all 2,588 cases, median OS of patients under PPV not containing the peptide
[8] = Table 19, 2,085 advanced cancer patients (stage IV+recurrence)
[9] = Table 19, 2,085 advanced cancer patients (stage IV+recurrence), PPV containing the peptide
[10] = Table 19, 2,085 advanced cancer patients (stage IV+recurrence), PPV not containing the peptide
[11] = Table 21, patients showing both <64% neutrophil and ≥26% lymphocyte
[12] = Table 21, patients showing both <64% neutrophil and ≥26% lymphocyte, PPV containing the peptide
[13] = Table 21, patients showing both <64% neutrophil and ≥26% lymphocyte, PPV not containing the peptide

Sequence	Post vaccination IgG Median (FIU) [1, 2]	Pre-vaccination IgG Median (FIU) [1, 2]	Pre-vaccination IgG Negative (number of patients) [1, 2]	Pre-vaccination IgG Positive (number of patients) [1, 2]	Post vaccination IgG: number of (positive) patients among vaccinated [1, 2]	Pre-vaccination IgG Negative patients [1]	Pre-vaccination IgG Positive patients [1]	Post vaccination IgG: (positive) patients [1]	Pre-vaccination IgG Median (FIU) [1, 3]	Post vaccination IgG Median (FIU) [1, 4]	Correlation between immune responses and OS: Negative (mOS) [1]	Correlation between immune responses and OS: Positive (mOS) [1]	HR (cancer patients; [5])	Vaccinate cases (mOS) (cancer patients; [6])	Non-vaccinate cases (mOS) (cancer patients; [7])	HR (cancer patients; [8])	Vaccinate cases (mOS) (cancer patients; [9])	Non-vaccinate cases (mOS) (cancer patients; [10])	Correlation between immune responses and OS: Negative (mOS) (cancer patients)	Correlation between immune responses and OS: Positive (mOS) (cancer patients)	also measured
DVWSFGILL (listed as Homo sapiens) [Lck-422]	446 FIU	33 FIU	945	121	33(10)	2,272	316	92(20)	33 FIU	436 FIU	11.7 months	18.5 months	1.2	92(12.0) M	1,849(11.4) M	1.1	83(11.7) M	1493(10.2) M	15.6 months	18.8 months	positive rate of patients showing ≥10 FIU, pre-vaccination peptide-specific IgG [1]: 12%; positive immune responses post-vaccination (positive of vaccinated cases) ([1]; patients who completed at least the first cycle): 20 of 92; HR (cancer patients; [11]): 1.1; Vaccinate cases (mOS) (cancer patients; [12]): 33(15.6) M; Non-vaccinate cases (mOS) (cancer patients; [13]): 775(17.5) M
VIQNLERGYR (listed as Homo sapiens) [Lck-449]	18,734 FIU	23 FIU	475	591	57(38)	1,182	1,406	127(67)	23 FIU	18,919 FIU	6.2 months	19.5 months	0.9	127(13.7) M	1,087(10.8) M	0.8	102(13.3) M	867(9.5) M	10 months	27.1 months	HR (cancer patients; [11]): 0.8; Vaccinate cases (mOS) (cancer patients; [12]): 57(18.1) M; Non-vaccinate cases (mOS) (cancer patients; [13]): 450(17.5) M
RYLTQETNKV (listed as Homo sapiens) [PTHrP-102]	5,336 FIU	27 FIU	710	356	91(51)	1,702	886	204(99)	27 FIU	1,423 FIU	11.4 months	20.0 months	0.9	204(13.3) M	1,346(11.9) M	0.9	168(11.8) M	1078(10.3) M	13.9 months	39 months	HR (cancer patients; [11]): 0.9; Vaccinate cases (mOS) (cancer patients; [12]): 91(21.2) M; Non-vaccinate cases (mOS) (cancer patients; [13]): 534(18.0) M
DYSARWNEI (listed as Homo sapiens) [SART2-93]	8,633 FIU	64 FIU	141	925	467(183)	340	2,248	1137(362)	66 FIU	3,435 FIU	12.3 months	21.7 months	0.9	1,137(12.3) M	413(11.5) M	1.0	906(10.7) M	340(10.2) M	17.3 months	24.7 months	positive rate of patients showing ≥10 FIU, pre-vaccination peptide-specific IgG [1]: 87%; HR (cancer patients; [11]): 1.0; Vaccinate cases (mOS) (cancer patients; [12]): 467(19.0) M; Non-vaccinate cases (mOS) (cancer patients; [13]): 158(17.6) M
ASLDSDPWV (listed as Homo sapiens) [WHSC2-103]	916 FIU	40 FIU	381	685	289(105)	915	1,673	729(222)	43 FIU	827 FIU	12.1 months	19.6 months	1.0	729(11.5) M	1,465(11.6) M	1.0	581(10.2) M	1193(10.3) M	14.4 months	27.1 months	HR (cancer patients; [11]): 1.0; Vaccinate cases (mOS) (cancer patients; [12]): 289(17.6) M; Non-vaccinate cases (mOS) (cancer patients; [13]): 617(18.0) M
DYLRSVLEDF (listed as Homo sapiens) [Lck-488]	11,894 FIU	60 FIU	192	874	452(313)	441	2,147	1103(635)	60 FIU	11,594 FIU	7.8 months	20.6 months	0.9	1,103(12.0) M	447(12.0) M	1.0	872(10.7) M	374(10.1) M	9.3 months	24.7 months	HR (cancer patients; [11]): 1.0; Vaccinate cases (mOS) (cancer patients; [12]): 452(17.9) M; Non-vaccinate cases (mOS) (cancer patients; [13]): 173(19.7) M

From patent US20220233661A1, “METHOD OF DETERMINING ELIGIBILITY OF CANCER PATIENT FOR PEPTIDE VACCINE THERAPY” (priority 2019, published 2022)
